Source: patent publication US6468972B1, “Method to promote, stimulate and/or delay hair loss by a brady kinin antagonist” (Societe L'Oreal S.A., priority 1995, dated 2002)

Assays:
[1] = tested on: bradykinin-induced increase in intracellular calcium concentration in keratinocytes of the outer sheath of human hair follicles; assay: Effect on the increase in intracellular calcium concentration induced by bradykinin (FURA 2 spectrofluorimetry); type: cell-based; conditions: for % Inhibition (1 μM bradykinin): preincubation at least 120 seconds before 1 μM bradykinin, ORS keratinocytes; for Effect on the increase in intracellular calcium concentration induced by bradykinin (in words): summary statement of Example 1
Method: (§1) a) Culturing Keratinocytes of the Outer Sheath of Human Hair Follicles: This procedure is a variant of that described by YANG et al., J. Invest. Dermatol., 1993, 101 (5), 652-659. After decontamination, a lifting scalp biopsy is treated with dispase in a proportion of 2.4 units/ml for 20 hours at 4° C. The outer sheath of the hair follicles (ORS) is then isolated by dissection, followed by treatment with 0.125% trypsin for 30 minutes at 37° C. The cells thus prepared are then cultured in conditioned Green medium for 6 days. […] The cells are then placed on glass slides 10 mm in diameter and cultured in KGM medium. b) Measurement of the Intracellular Calcium Concentration: The measurements are taken according to the procedures used conventionally by those skilled in the art and which are found, for example, in Cellular Calcium: A Practical Approach, published by J. G. McCormack and P. H. Cobbold; IRL PRESS (1991). The cells are incubated for 1 hour at 37° C. in 10 mM HEPES buffer, 5 mM KCl, 140 mM NaCl, 10 mM glucose, 1 mM MgCl2, 2 mM CaCl2 with 5 μM FURA 2 acetomethyl ester and Pluronic (5 mg/10 ml). After rinsing in the buffer, the slides are placed in an adapted support and the reading is taken using a PERKIN ELMER LS 50 B spectrofluorimeter at 37° C. The cells are preincubated with or without Minoxidil or Minoxidil sulphate, for at least 120 seconds before the injection of 1 μM bradykinin.

[2] = as above; type: cell-based, human; conditions: Homo sapiens, Keratinocyte, preincubation at least 120 seconds before 1 μM bradykinin, ORS keratinocytes
Method: as §1

Compound: Minoxidil sulphate
- % Inhibition (1 μM bradykinin) ([1]; product concentration 10 μM): 0%
- % Inhibition (1 μM bradykinin) ([1]; product concentration 50 μM): 31%
- % Inhibition (1 μM bradykinin) ([1]; product concentration 100 μM): 54%
- % Inhibition (1 μM bradykinin) ([1]; product concentration 1000 μM): 70%
- Effect on the increase in intracellular calcium concentration induced by bradykinin (in words) [1]: inhibit the increase in intracellular calcium concentration induced by bradykinin

Compound: Nc1cc(N2CCCCC2)nc(N)[n+]1[O-] [Minoxidil, 2,4-diamino-6-piperidinopyrimidine 3-oxide]
- inhibition at 10 µM ([2]; product concentration 10 μM): 0%
- inhibition at 50 µM ([2]; product concentration 50 μM): 15%
- inhibition at 100 µM ([2]; product concentration 100 μM): 25%
- inhibition at 1000 µM ([2]; product concentration 1000 μM): 31%
- Effect on the increase in intracellular calcium concentration induced by bradykinin (in words) [1]: inhibit the increase in intracellular calcium concentration induced by bradykinin
